Assay results published in patent US12215085B2 (priority 2019, dated 2025).
Where a name gives a salt, the structure may show the parent alone. Marks after values point to notes of the source that are not given here.

How the values were obtained:
[1] = test system: rats with common carotid artery occlusion-induced vascular dementia; assay: Step-down test, common carotid artery occlusion-induced vascular dementia rats; type: in vivo, rat
Source text: (§1) A rat blood vessel dementia model was made according to the references [ZHAO Xian-lin, FANG Xiu-bin, LI Dong-pei. Establishment of Vascular Dementia Model in Rats, J Chin Med Univ, 2002, 31 (3): 166-168; WANG Yong-yan, Zhang Bo-li, Editor-in-chief. Modern Chinese Medicine Clinic and Research on Vascular Dementia, People's Medical Publishing House, October 2003, First Version 214]: Chloral hydrate 0.4 g/kg was intraperitoneally injected for anesthetizing rats, and bilateral common carotid arteries were isolated and ligated. The animals were fed for 16 weeks, divided into groups on the last 7 days, and administered. The normal control group and the model group were administrated through the intragastric route with distilled water by 0.5 ml/100 g, the positive control group was administrated through the intragastric route with donepezil hydrochloride by 1.75 mg/kg (equivalent to 3.85 times the clinical daily dosage of 5 mg/70 kg), the low, medium and high-dose groups of Crystal Form A of octahydroaminoacridine succinate were administrated through the intragastric route with Crystal Form A of octahydroaminoacridine succinate by 0.7, 1.4 and 2.8 mg/kg (equivalent to 0.96, 1.92 and 3.85 times the clinical daily dosage of 8 mg/70 kg). The water maze test and the step-down test were carried out after continuous administration for 7 days, and the administration was continued during the test period. The water maze test was continuously performed for 7 days, in the first 6 days, in four different water entry points of quadrants 1, 2, 3 and 4, the time, the swimming path length, the orientation angle and the average speed of the rat reaching the platform were measured, meanwhile, the strategy for reaching the platform adopted by rats was observed, on the 7th day, the platform was removed, the number of rats crossing the platform in 2 minutes, the residence time in the platform area, the residence time in the platform quadrants, the percentage of the swimming path length in the platform area quadrants to the total swimming path length, the average speed and the orientation angle were measured. After the water maze test was finished, the step-down test was performed, and the number of electric shocks (or called as the error number) received by each rat within 5 minutes was recorded as the learning performance. The test was performed again after 24 hours, namely, the memory retention test, and the latent period for stepping-down the platform for the first time and the error number in five minutes were recorded. After the step-down test was finished, the brain was taken quickly for pathological examination, and the pathological changes of the hippocampus and the cortex were observed.

[2] = test system: rats with beta-amyloid induced senile dementia; assay: Step-down test, beta-amyloid induced senile dementia rats; type: in vivo, rat; details: donepezil hydrochloride 1.75 mg/kg, P<0.05
[3] = test system: rats with beta-amyloid induced senile dementia; assay: Water maze test, beta-amyloid induced senile dementia rats; type: in vivo, rat; details: for adopted strategy for reaching the platform (the peripheral type and the random type %) / orientation angle for reaching the platform / speed for reaching the platform / swimming path length for reaching the platform / time for reaching the platform: 1.75 mg/kg intragastric; for orientation angle for reaching the platform / speed for reaching the platform / swimming path length for reaching the platform / time for reaching the platform: x ± s
[4] = test system: rats with common carotid artery occlusion-induced vascular dementia; assay: Water maze test, common carotid artery occlusion-induced vascular dementia rats; type: in vivo, rat; details: for orientation angle for reaching the platform / speed for reaching the platform / swimming path length for reaching the platform / time for reaching the platform: x ± s
Source text: as §1

[5] = test system: cholinesterase B (Homo sapiens); assay: In vitro inhibition of cholinesterase B; type: biochemical; details: in vitro tests; multiple of rivastigmine
cholinesterase D = cholinesterase D (Homo sapiens, UniProt P06276); type: biochemical; details: in vitro tests; multiple of rivastigmine
[6] = donepezil hydrochloride 1.75 mg/kg, Day 2, P<0.05
[7] = step-down method, 1.75 mg/kg intragastric, x ± s
[8] = donepezil hydrochloride 1.75 mg/kg, Day 1 to Day 6
[9] = donepezil hydrochloride 1.75 mg/kg, Day 7
[10] = donepezil hydrochloride 1.75 mg/kg, Day 7, P<0.05
[11] = donepezil hydrochloride 1.75 mg/kg, P<0.05 or P<0.01

Chain of cholinesterase D (P06276 29-602): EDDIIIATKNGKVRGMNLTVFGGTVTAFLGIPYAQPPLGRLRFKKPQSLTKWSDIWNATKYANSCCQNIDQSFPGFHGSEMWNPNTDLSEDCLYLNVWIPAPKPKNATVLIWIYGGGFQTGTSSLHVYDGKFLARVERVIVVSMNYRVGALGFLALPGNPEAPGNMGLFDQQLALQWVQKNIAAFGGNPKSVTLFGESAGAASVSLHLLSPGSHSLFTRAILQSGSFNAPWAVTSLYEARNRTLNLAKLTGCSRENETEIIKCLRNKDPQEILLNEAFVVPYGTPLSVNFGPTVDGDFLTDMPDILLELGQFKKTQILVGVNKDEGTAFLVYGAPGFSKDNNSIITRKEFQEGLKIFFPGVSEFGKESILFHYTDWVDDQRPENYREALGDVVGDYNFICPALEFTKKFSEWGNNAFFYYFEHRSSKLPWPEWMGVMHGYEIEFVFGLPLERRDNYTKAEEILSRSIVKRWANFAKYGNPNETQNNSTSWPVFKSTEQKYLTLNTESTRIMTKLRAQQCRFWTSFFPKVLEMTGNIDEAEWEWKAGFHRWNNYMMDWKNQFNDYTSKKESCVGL
Chain of cholinesterase B (Homo sapiens) (P22303 32-614): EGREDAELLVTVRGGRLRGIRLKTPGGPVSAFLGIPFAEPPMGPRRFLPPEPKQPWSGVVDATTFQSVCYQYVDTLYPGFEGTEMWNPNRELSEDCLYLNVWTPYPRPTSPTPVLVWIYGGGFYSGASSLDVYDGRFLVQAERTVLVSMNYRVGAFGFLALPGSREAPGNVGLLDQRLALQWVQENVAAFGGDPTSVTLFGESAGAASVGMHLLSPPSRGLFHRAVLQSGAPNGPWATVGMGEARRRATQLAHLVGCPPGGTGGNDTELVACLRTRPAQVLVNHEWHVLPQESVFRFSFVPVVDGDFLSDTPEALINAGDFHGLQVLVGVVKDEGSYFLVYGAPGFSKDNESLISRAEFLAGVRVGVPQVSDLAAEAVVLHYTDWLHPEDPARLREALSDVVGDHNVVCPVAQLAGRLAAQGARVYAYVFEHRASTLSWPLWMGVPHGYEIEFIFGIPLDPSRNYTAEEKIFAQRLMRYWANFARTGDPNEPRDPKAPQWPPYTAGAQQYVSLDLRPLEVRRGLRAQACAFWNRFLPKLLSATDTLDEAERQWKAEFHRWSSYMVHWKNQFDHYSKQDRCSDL

Structure (SMILES): COc1cc2c(cc1OC)C(=O)C(CC1CCN(Cc3ccccc3)CC1)C2 (centres unmarked) [Positive control group, donepezil hydrochloride]
- step-down error number vs model group ([1]; donepezil hydrochloride 1.75 mg/kg, Day 1 and Day 2, P<0.05): obviously reduced
- error latency vs model group [1, 6]: obviously prolonged
- Day 1, Error number [1, 7]: 5.40 ± 3.06
- Day 2, Error latency [1, 7]: 244.10 ± 77.83 s
- Day 2, Error number [1, 7]: 1.10 ± 1.28
- step-down error number vs model group ([2]; Day 1 and Day 2): obviously reduced
- error latency vs model group ([2]; Day 2): obviously prolonged
- adopted strategy for reaching the platform (the peripheral type and the random type %) ([3]; Day 1): 97.50%
- orientation angle for reaching the platform ([3]; Day 1): 75.41 ± 22.31 °
- speed for reaching the platform ([3]; Day 1): 16.03 ± 4.22 cm/s
- swimming path length for reaching the platform ([3]; Day 1): 1029.43 ± 453.12 cm
- time for reaching the platform ([3]; Day 1): 72.43 ± 30.97 s
- adopted strategy for reaching the platform (the peripheral type and the random type %) ([3]; Day 2): 75.00%
- orientation angle for reaching the platform ([3]; Day 2): 50.14 ± 23.02 °
- speed for reaching the platform ([3]; Day 2): 20.78 ± 5.83 cm/s
- swimming path length for reaching the platform ([3]; Day 2): 762.34 ± 562.06 cm
- time for reaching the platform ([3]; Day 2): 38.98 ± 33.812 s
- adopted strategy for reaching the platform (the peripheral type and the random type %) ([3]; Day 3): 77.50%
- orientation angle for reaching the platform ([3]; Day 3): 52.85 ± 27.04 °
- speed for reaching the platform ([3]; Day 3): 19.15 ± 4.64 cm/s
- swimming path length for reaching the platform ([3]; Day 3): 572.83 ± 576.82 cm
- time for reaching the platform ([3]; Day 3): 34.41 ± 37.35 s
- adopted strategy for reaching the platform (the peripheral type and the random type %) ([3]; Day 4): 62.50** %
- orientation angle for reaching the platform ([3]; Day 4): 46.37 ± 17.86 °
- speed for reaching the platform ([3]; Day 4): 22.07 ± 8.05 cm/s
- swimming path length for reaching the platform ([3]; Day 4): 312.04 ± 316.86 cm
- time for reaching the platform ([3]; Day 4): 29.32 ± 39.89 s
- adopted strategy for reaching the platform (the peripheral type and the random type %) ([3]; Day 5): 67.50** %
- orientation angle for reaching the platform ([3]; Day 5): 50.54 ± 24.98 °
- speed for reaching the platform ([3]; Day 5): 19.67 ± 3.94 cm/s
- swimming path length for reaching the platform ([3]; Day 5): 495.72 ± 380.99 cm
- time for reaching the platform ([3]; Day 5): 29.16 ± 24.95 s
- adopted strategy for reaching the platform (the peripheral type and the random type %) ([3]; Day 6): 62.50* %
- orientation angle for reaching the platform ([3]; Day 6): 44.21 ± 34.00 °
- speed for reaching the platform ([3]; Day 6): 18.28 ± 5.12 cm/s
- swimming path length for reaching the platform ([3]; Day 6): 413.33 ± 483.35 cm
- time for reaching the platform ([3]; Day 6): 28.99 ± 35.61 s
- swimming speed vs model group [3, 8]: not obviously changed
- latent period for reaching the platform vs model group ([3]; donepezil hydrochloride 1.75 mg/kg, Day 1 to Day 6, no statistical significance): shortened trend
- orientation angle vs model group [3, 6]: obviously decreased
- swimming path length for reaching the platform vs model group ([3]; donepezil hydrochloride 1.75 mg/kg, Day 4, P<0.05): obviously shortened
- average speed and orientation angle vs model group [3, 9]: not obviously changed
- number of crossing the platform vs model group [3, 10]: obviously increased
- percentage of the swimming path length in the platform area quadrants to the total swimming path length vs model group [3, 10]: obviously increased
- residence time in the platform area vs model group [3, 10]: obviously increased
- residence time in the platform quadrants within 2 minutes vs model group [3, 10]: obviously increased
- conversion from the peripheral type and the random type to the tendency type and the linear type in the strategy for looking for the platform [3, 11]: obviously increased
- adopted strategy for reaching the platform (the peripheral type and the random type %) ([4]; Day 1, 1.75 mg/kg intragastric): 65.00* %
- orientation angle for reaching the platform ([4]; Day 1, 1.75 mg/kg intragastric): 58.85 ± 15.35 °
- speed for reaching the platform ([4]; Day 1, 1.75 mg/kg intragastric): 21.15 ± 5.56 cm/s
- swimming path length for reaching the platform ([4]; Day 1, 1.75 mg/kg intragastric): 1105.00 ± 578.29 cm
- time for reaching the platform ([4]; Day 1, 1.75 mg/kg intragastric): 58.42 ± 23.42 s
- adopted strategy for reaching the platform (the peripheral type and the random type %) ([4]; Day 2, 1.75 mg/kg intragastric): 62.50%
- orientation angle for reaching the platform ([4]; Day 2, 1.75 mg/kg intragastric): 61.54 ± 17.41 °
- speed for reaching the platform ([4]; Day 2, 1.75 mg/kg intragastric): 22.68 ± 5.82 cm/s
- swimming path length for reaching the platform ([4]; Day 2, 1.75 mg/kg intragastric): 579.08 ± 316.12 cm
- time for reaching the platform ([4]; Day 2, 1.75 mg/kg intragastric): 33.96 ± 17.06 s
- adopted strategy for reaching the platform (the peripheral type and the random type %) ([4]; Day 3, 1.75 mg/kg intragastric): 62.50* %
- orientation angle for reaching the platform ([4]; Day 3, 1.75 mg/kg intragastric): 48.94 ± 13.42 °
- speed for reaching the platform ([4]; Day 3, 1.75 mg/kg intragastric): 21.19 ± 3.15 cm/s
- swimming path length for reaching the platform ([4]; Day 3, 1.75 mg/kg intragastric): 606.25 ± 279.18 cm
- time for reaching the platform ([4]; Day 3, 1.75 mg/kg intragastric): 30.17 ± 14.50 s
- adopted strategy for reaching the platform (the peripheral type and the random type %) ([4]; Day 4, 1.75 mg/kg intragastric): 67.50%
- orientation angle for reaching the platform ([4]; Day 4, 1.75 mg/kg intragastric): 58.94 ± 22.56 °
- speed for reaching the platform ([4]; Day 4, 1.75 mg/kg intragastric): 25.79 ± 9.79 cm/s
- swimming path length for reaching the platform ([4]; Day 4, 1.75 mg/kg intragastric): 615.78 ± 385.17 cm
- time for reaching the platform ([4]; Day 4, 1.75 mg/kg intragastric): 23.92 ± 12.45 s
- adopted strategy for reaching the platform (the peripheral type and the random type %) ([4]; Day 5, 1.75 mg/kg intragastric): 50.00%
- orientation angle for reaching the platform ([4]; Day 5, 1.75 mg/kg intragastric): 49.64 ± 17.65 °
- speed for reaching the platform ([4]; Day 5, 1.75 mg/kg intragastric): 24.88 ± 8.76 cm/s
- swimming path length for reaching the platform ([4]; Day 5, 1.75 mg/kg intragastric): 586.80 ± 405.09 cm
- time for reaching the platform ([4]; Day 5, 1.75 mg/kg intragastric): 21.94 ± 11.16 s
- adopted strategy for reaching the platform (the peripheral type and the random type %) ([4]; Day 6, 1.75 mg/kg intragastric): 47.50** %
- orientation angle for reaching the platform ([4]; Day 6, 1.75 mg/kg intragastric): 53.54 ± 19.68 °
- speed for reaching the platform ([4]; Day 6, 1.75 mg/kg intragastric): 21.02 ± 6.67 cm/s
- swimming path length for reaching the platform ([4]; Day 6, 1.75 mg/kg intragastric): 348.06 ± 202.65 cm
- time for reaching the platform ([4]; Day 6, 1.75 mg/kg intragastric): 17.87 ± 12.66 s
- Average speed ([4]; Day 7, 1.75 mg/kg intragastric): 24.60 ± 10.18 cm/s
- Number of crossing the platform ([4]; Day 7, 1.75 mg/kg intragastric): 9.40 ± 5.16
- Orientation angle ([4]; Day 7, 1.75 mg/kg intragastric): 9.40 ± 5.17 °
- Swimming path length in the platform area/total swimming path length × 100% ([4]; Day 7, 1.75 mg/kg intragastric): 33.02 ± 9.98%
- Time in the platform area ([4]; Day 7, 1.75 mg/kg intragastric): 3.06 ± 2.24 s
- Time in the platform quadrants ([4]; Day 7, 1.75 mg/kg intragastric): 42.21 ± 12.71 s
- orientation angle and swimming speed vs model group [4, 8]: not obviously changed
- swimming path length for reaching the platform vs model group ([4]; donepezil hydrochloride 1.75 mg/kg, Day 2, Day 3 and Day 6, P<0.05): obviously shortened
- latent period for reaching the platform vs model group ([4]; donepezil hydrochloride 1.75 mg/kg, Day 5 and Day 6, P<0.05 or P<0.01): obviously shortened
- average speed and orientation angle vs model group [4, 9]: not obviously changed
- residence time in the platform quadrants within 2 minutes vs model group [4, 10]: obviously increased
- number of crossing the platform, residence time in the platform area, and percentage of the swimming path length in the platform area quadrants to the total swimming path length vs model group ([4]; donepezil hydrochloride 1.75 mg/kg, Day 7, no statistical significance): increased trend
- conversion from the peripheral type or the random type to the tendency type or the linear type in the strategy for looking for the platform [4, 11]: obviously increased

Structure (SMILES): Nc1c2c(nc3c1CCCC3)CCCC2.O=C(O)CCC(=O)O [octahydroaminoacridine succinate, 9-amino-1,2,3,4,5,6,7,8-octahydroacridine succinate]
- inhibiting ability to cholinesterase B relative to rivastigmine [5]: 500 times
- inhibiting ability to cholinesterase D relative to rivastigmine (cholinesterase D): 2000 times
